Test results published in patent US10905651B1, “Zeinmersome nanocarriers for drug delivery to the liver” (King Abdulaziz University, priority 2020, dated 2021).

Assays:
[1] = In vitro diffusion studies (Franz diffusion cell); assay type: physicochemical; details: within a 4-hour time period; 0.1 μm nylon membrane, buffer pH 7.0 with Tween 20 0.5% w/v
Method: The formula characterization was assessed by examining its diffusion pattern. An automated Franz diffusion cell apparatus (MicroettePlus; Hanson Research, Chatsworth, Calif., US) with a diffusion area of 1.76 cm^2 was utilized to examine the diffusion of OM from the prepared formula as described previously (Ahmed et al., 2019. Internat J Pharmaceu 570: 118657). A 0.1 μm nylon diffusion membrane and a buffer (pH 7.0) containing Tween 20 (0.5% w/v) were used, and this was stirred at 400 rpm. The aliquots were analyzed for OM concentration by HPLC as previously reported. The samples were collected at 0.5, 1, 2, 4, 8, 12, 24 and 48 h.

AT2 receptors = target: T1, AT2 receptors (Homo sapiens, UniProt P50052); details: cited from earlier work
T1 sequence (P50052 1-363): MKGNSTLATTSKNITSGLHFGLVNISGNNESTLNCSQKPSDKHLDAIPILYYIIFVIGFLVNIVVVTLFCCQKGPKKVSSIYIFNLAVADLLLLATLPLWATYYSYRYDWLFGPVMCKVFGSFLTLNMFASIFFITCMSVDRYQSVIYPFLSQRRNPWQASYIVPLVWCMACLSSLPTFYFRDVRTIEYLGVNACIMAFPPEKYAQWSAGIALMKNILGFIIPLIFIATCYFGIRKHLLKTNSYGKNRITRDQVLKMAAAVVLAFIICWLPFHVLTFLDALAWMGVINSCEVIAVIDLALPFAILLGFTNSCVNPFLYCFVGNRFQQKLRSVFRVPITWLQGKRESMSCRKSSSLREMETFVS

AT4 receptors = details: cited from earlier work

Structure (SMILES): CCCc1nc(C(C)(C)O)c(C(=O)OCc2oc(=O)oc2C)n1Cc1ccc(-c2ccccc2-c2nnn[nH]2)cc1 [OM, (5-methyl-2-oxo-1,3-dioxol-4-yl)methyl 5-(2-hydroxypropan-2-yl)-2-propyl-3-[[4-[2-(2H-tetrazol-5-yl)phenyl]phenyl]methyl]imidazole-4-carboxylate]
- diffusion of OM (percentage permeated) [1]: ~97.5±13.07%
- antagonistic effects on the AT2 receptors (AT2 receptors): almost no antagonistic effects
- antagonistic effects on the AT4 receptors (AT4 receptors): almost no antagonistic effects
